Laboratory results from ChEMBL document CHEMBL5385919, “A Survey of Recently Discovered Naturally Occurring Organohalogen Compounds” (J Nat Prod, 2024).
≈ marks a conversion by molar mass, not a printed value. Blank lines part the entries; values can stand above or below the molecule they belong to. Numbered stars: 1 amine (or outer) side, 2 acyl side, 3 side chain; on linkers, the order of the positions; unused ones are H or OH. Square brackets hold non-standard residues; d marks the D form. Peptide text beside a SMILES is read from it. X1 = CC(C)(O)/C=C/[C@]12C[C@@H](C(=O)[*:2])N([*:1])[C@@H]1Nc1ccc(Br)cc12

What was measured:
Aspergillus sydowii = assay: Antifungal activity against Aspergillus sydowii SCSIO 00305 assessed as inhibition of fungal growth; assay type: functional, organism-based
Escherichia coli = assay: Antibacterial activity against Escherichia coli assessed as reduction in bacterial growth; assay type: functional
MOLT-4 = assay: Cytotoxicity against human MOLT-4 cells assessed as inhibition of cell growth incubated for 24 hrs by MTT assay; assay type: functional, cell-based; conditions: MOLT-4, 24 h
[1] = test system: Trypanosoma brucei rhodesiense; assay: Antitrypanosomal activity against Trypanosoma brucei rhodesiense; assay type: functional, organism-based
Staphylococcus aureus [2] = assay: Antibacterial activity against methicillin resistant Staphylococcus aureus assessed as reduction in bacterial growth; assay type: functional, organism-based
MH60 = assay: Cytotoxicity in mouse MH60 cells assessed as inhibition of cell growth; assay type: functional, cell-based
MDA-MB-231 = assay: Growth inhibition of human MDA-MB-231 cells assessed inhibition of cell growth; assay type: functional
Staphylococcus aureus [3] = assay: Antibacterial activity against Staphylococcus aureus assessed as reduction in bacterial growth; assay type: functional
Nannizzia gypsea = assay: Antifungal activity against Microsporum gypseum assessed as reduction in fungal growth; assay type: functional
Bacillus subtilis = assay: Antibacterial activity against Bacillus subtilis assessed as reduction in bacterial growth; assay type: functional
ACHN = assay: Growth inhibition of human ACHN cells assessed as cell viability incubated for 48 hrs by SRB assay; assay type: functional; conditions: pooled result: one value given for 6 cell lines, strains, targets or settings
Micrococcus luteus = assay: Antimicrobial activity against Micrococcus luteus assessed as bacterial growth inhibition; assay type: functional
KB = assay: Cytotoxicity against human KB cells assessed as inhibition of cell growth incubated for 48 hrs by MTT assay; assay type: functional, cell-based
HL-60 [4] = assay: Cytotoxicity against human HL-60 cells assessed as inhibition of cell growth incubated for 48 hrs by MTT assay; assay type: functional, cell-based; conditions: HL-60, 48 h
MCF7 = assay: Cytotoxicity against human MCF7 cells assessed as inhibition of cell growth incubated for 48 hrs by MTT assay; assay type: functional, cell-based; conditions: MCF7, 48 h
MGC-803 = assay: Cytotoxicity against human MGC-803 cells assessed as inhibition of cell growth incubated for 48 hrs by MTT assay; assay type: functional, cell-based; conditions: MGC-803, 48 h
Vibrio harveyi [5] = assay: Antimicrobial activity against Vibrio harveyi assessed as bacterial growth inhibition incubated for 12 hrs by serial dilution analysis; assay type: functional
HL-60 [6] = assay: Cytotoxicity against human HL-60 cells assessed as inhibition of cell growth; assay type: functional, cell-based
[7] = target: E3 ubiquitin-protein ligase CBL-B (Homo sapiens, UniProt Q13191); assay: Inhibition of recombinant Cbl-b (unknown origin) in presence of ATP incubated for 60 mins by ELISA analysis
Sequence of E3 ubiquitin-protein ligase CBL-B (Q13191 whole entry): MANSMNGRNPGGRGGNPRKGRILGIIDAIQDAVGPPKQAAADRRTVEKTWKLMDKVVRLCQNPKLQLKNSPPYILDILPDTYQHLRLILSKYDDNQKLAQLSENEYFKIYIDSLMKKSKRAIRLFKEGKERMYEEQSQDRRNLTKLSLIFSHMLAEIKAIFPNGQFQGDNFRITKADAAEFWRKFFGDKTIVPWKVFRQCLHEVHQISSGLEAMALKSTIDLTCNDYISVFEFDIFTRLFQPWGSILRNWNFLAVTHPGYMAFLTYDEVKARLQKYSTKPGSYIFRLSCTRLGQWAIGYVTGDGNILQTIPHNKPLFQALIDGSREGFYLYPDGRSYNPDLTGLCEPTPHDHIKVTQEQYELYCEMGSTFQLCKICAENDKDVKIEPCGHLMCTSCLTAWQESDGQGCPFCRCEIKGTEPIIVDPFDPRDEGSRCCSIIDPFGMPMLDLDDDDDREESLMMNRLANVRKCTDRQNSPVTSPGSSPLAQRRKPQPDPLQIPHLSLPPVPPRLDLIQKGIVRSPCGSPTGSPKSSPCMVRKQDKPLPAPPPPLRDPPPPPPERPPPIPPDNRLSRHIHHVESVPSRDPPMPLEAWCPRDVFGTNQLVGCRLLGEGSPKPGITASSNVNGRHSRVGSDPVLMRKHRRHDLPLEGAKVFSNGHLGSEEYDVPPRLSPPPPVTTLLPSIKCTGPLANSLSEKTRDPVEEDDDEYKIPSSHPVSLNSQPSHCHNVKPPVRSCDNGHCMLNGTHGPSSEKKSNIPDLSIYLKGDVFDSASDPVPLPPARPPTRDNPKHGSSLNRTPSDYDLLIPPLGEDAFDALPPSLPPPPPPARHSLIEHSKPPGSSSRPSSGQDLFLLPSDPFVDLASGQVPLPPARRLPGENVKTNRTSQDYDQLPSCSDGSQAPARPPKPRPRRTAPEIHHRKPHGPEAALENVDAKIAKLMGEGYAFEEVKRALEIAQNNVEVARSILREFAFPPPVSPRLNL

Bacillus mycoides = assay: Antibacterial activity against Bacillus mycoides assessed as reduction in bacterial growth; assay type: functional
Candida albicans = assay: Antifungal activity against Candida albicans assessed as reduction in […] growth; assay type: functional
[8] = test system: Mycolicibacterium smegmatis; assay: Antibacterial activity against Mycolicibacterium smegmatis assessed as reduction in bacterial growth; assay type: functional
Vibrio harveyi [9] = assay: Antimicrobial activity against Vibrio harveyi assessed as bacterial growth inhibition; assay type: functional
[10] = Antioxidant activity assessed as DPPH radical scavenging activity; assay type: functional
RAW264.7 = assay: Inhibition of LPS-induced NO production in mouse RAW264.7 cells; assay type: functional, cell-based

SMILES: COc1cc2oc3cc4c(c(OC)c3c(=O)c2c(OC)c1Cl)[C@@H]1C=CO[C@@H]1O4
IC50 (Aspergillus sydowii): 2.9 µM

SMILES: O=C(O)c1cn(C2CC2)c2cc(N3CCNCC3)c(F)cc2c1=O [CIPROFLOXACIN]
MIC (Escherichia coli): 0.025 µM (≈ 0.00828 µg/mL)

SMILES: CC(C)C[C@@H]1NC(=O)[C@@H]2C[C@]3(/C=C/C(C)(C)O)c4cc(Br)ccc4N[C@H]3N2C(=O)[C@@H]2CCCN2C(=O)[C@H](C(C)C)NC(=O)[C@@H]2CCCN2C(=O)[C@H](CC(C)C)NC(=O)[C@@H]2CCCN2C(=O)[C@H](CC(C)C)NC(=O)[C@@H]2CCCN2C(=O)[C@H](Cc2ccccc2)NC1=O (cyclo(FPLPLPVP[X1]L))
IC50 (MOLT-4): 4.7 µM

SMILES: Cc1cc(O)c2c3c(c(O)cc(OC[C@@H](O)C(C)(C)Cl)c13)C(=O)C2=O
MIC (Staphylococcus aureus [2]): 12.5 µM

SMILES: CC(C)=CCC1OC1(C)C1(O)C(O)C(=O)CC[C@]1(O)CCl (stereo not given in full)
IC50 (MH60): 7.5 µM

SMILES: COc1c(Cl)ccc2c(=O)c3c(O)c4c5c(c3oc12)OCO[C@@H]5Cc1c-4c(O)c2c(=O)[nH]c(C)c(Cl)c2c1O
IC50 (KB): 0.008 µg/mL (≈ 0.014 µM)
IC50 (HL-60 [4]): 0.008 µg/mL (≈ 0.014 µM)
IC50 (MCF7): 0.008 µg/mL (≈ 0.014 µM)
IC50 (MGC-803): 0.008 µg/mL (≈ 0.014 µM)

SMILES: CC(C)/C1=C/[C@H](O)[C@](C)(O)CC[C@H](Cl)[C@@]2(C)CC[C@H](O2)[C@](C)(O)CC1
IC50 (HL-60 [6]): 3.67 µM

SMILES: CC[C@H](C)[C@H]1O[C@H](CC(C)=O)O[C@@]1(C)/C=C/C1=CC2=C(Cl)C(=O)[C@](C)(O)[C@H](OC(C)=O)[C@H]2CO1
MIC (Staphylococcus aureus [2]): 25 µg/mL

SMILES: COc1ccc2[nH]c3c(O)cccc3c2c1Cl
MIC (Staphylococcus aureus [2]): 32 µg/mL
MIC (Bacillus mycoides): 32 µg/mL (≈ 129 µM)
MIC (Candida albicans): 32 µg/mL (≈ 129 µM)
MIC [8]: 32 µg/mL (≈ 129 µM)

SMILES: O=C1Oc2cc(Br)c(O)c(Br)c2/C1=C/c1cc(Br)c(O)c(Br)c1
MIC (Staphylococcus aureus [3]): 5.2 µM

SMILES: O=Cc1cc(Br)c(O)c(O)c1Cc1ccc(O)c(Br)c1
IC50 [10]: 3.5 µM

Next, values leading:

IC50 [1]: 1.2 µM
SMILES: CC(=O)O[C@@H](C/C=C/Cl)[C@@H](C)C(=O)/C=C/CCNC(=O)CC/C=C/C(C)(C)C

GI50 (MDA-MB-231): 0.72 µM
SMILES: CCCC[C@H]1CCC[C@@H](Cl)C[C@@H](OC)c2cc(O)c(c(O)c2)[C@@H](CC)CCC[C@@H](Cl)C[C@@H](OC)c2cc(O)c1c(O)c2

GI50 (MDA-MB-231): 0.72 µM
SMILES: CCCC[C@@H](Cl)CCC[C@@H](Cl)C[C@@H](OC)c1cc(O)c([C@@H](CCCC)CCC[C@@H](Cl)C[C@@H](OC)c2cc(O)cc(O)c2)c(O)c1

MIC (Staphylococcus aureus [3]): 15.4 µg/mL
MIC (Nannizzia gypsea): 8 µg/mL (≈ 23.8 µM)
SMILES: C=C(CCC=C(C)C)[C@]1(O)CC[C@@](C)(Cl)[C@H](Br)C1

MIC (Staphylococcus aureus [3]): 0.7 µM
MIC (Bacillus subtilis): 0.7 µM (≈ 0.215 µg/mL)
GI50 (ACHN): 4.9 µM
MIC (Micrococcus luteus): 0.7 µM (≈ 0.215 µg/mL)
SMILES: CC(C)Cc1c(O)cc2oc3cc(Cl)cn3c(=O)c2c1O

GI50 (MDA-MB-231): 0.72 µM
SMILES: CCCC[C@H]1CCC[C@@H](Cl)CCc2cc(O)c(c(O)c2)[C@@H](CCCC)CCC[C@@H](Cl)C[C@@H](OC)c2cc(O)c1c(O)c2

MIC (Vibrio harveyi [5]): 2 µg/mL (≈ 6.19 µM)
SMILES: O=C(N[C@H](CO)[C@H](O)c1ccc([N+](=O)[O-])cc1)C(Cl)Cl [CHLORAMPHENICOL]

IC50 [7]: 33 µM
SMILES: Cn1cc(Br)cc1C(=O)NC[C@@H]1[C@@H](CNC(=O)c2ccc(Br)[nH]2)Cc2nc(N)[nH]c2[C@H]1c1c[nH]c(N)n1

GI50 (MDA-MB-231): 0.72 µM
SMILES: CCCCC[C@H]1CCC[C@@H](Cl)C[C@@H](OC)c2cc(O)c(c(O[C@@H]3OC[C@@H](O)[C@H](O)[C@H]3O)c2)[C@@H](CCCC)CCC[C@@H](Cl)C[C@@H](OC)c2cc(O)c1c(O)c2

MIC (Staphylococcus aureus [3]): 26.8 µg/mL
MIC (Nannizzia gypsea): 4 µg/mL (≈ 11.9 µM)
SMILES: C=C(C)[C@@H](O)CC/C(C)=C1\CC[C@](C)(Cl)[C@@H](Br)C1

MIC (Vibrio harveyi [9]): 16 µg/mL (≈ 46.8 µM)
SMILES: COC(=O)/C=C/C(=O)N[C@H](Cc1ccc(O)c(Cl)c1)C(=O)OC

MIC (Staphylococcus aureus [3]): 5.2 µM
SMILES: O=C1NC[C@H](c2cc(Br)c(OC[C@H](O)CNC(=O)/C(Cc3cc(Br)c(O)c(Br)c3O)=N\O)c(Br)c2)O1

IC50 (RAW264.7): 16 µM
SMILES: CC(=O)/C=C/C1=CC[C@H]2[C@@H](C[C@@H]1C)OC(=O)[C@]2(O)CCl
